How the values were obtained:
[1] = target: T1, S-phase kinase associated protein 2 (Skp2) (Homo sapiens, UniProt P61024+Q13309); experiment: HTRF Skp2/Skp1-Cks1 binding inhibition assay
T1 construct: GST-Skp2/Skp1; with Skp1; Cks1 (His6-Cks1)

[2] = target: T1, S-phase kinase associated protein 2 (Skp2); experiment: HTRF Skp2/Skp1-Cks1 binding inhibition assay; also CETSA of Skp2 in SGC-7901 cells

T1 sequence (Q13309 whole entry): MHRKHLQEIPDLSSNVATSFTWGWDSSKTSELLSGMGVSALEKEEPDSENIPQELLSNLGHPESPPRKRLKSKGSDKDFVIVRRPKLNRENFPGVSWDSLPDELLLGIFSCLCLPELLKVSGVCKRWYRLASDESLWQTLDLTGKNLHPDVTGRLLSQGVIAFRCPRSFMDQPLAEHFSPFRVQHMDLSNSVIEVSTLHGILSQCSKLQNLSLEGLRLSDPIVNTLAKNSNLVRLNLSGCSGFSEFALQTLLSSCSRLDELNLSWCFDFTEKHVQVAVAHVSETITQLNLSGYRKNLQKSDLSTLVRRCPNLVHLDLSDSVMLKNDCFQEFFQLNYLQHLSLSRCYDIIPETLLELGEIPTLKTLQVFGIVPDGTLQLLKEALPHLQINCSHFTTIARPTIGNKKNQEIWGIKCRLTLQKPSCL
T1 sequence (P61024 2-79): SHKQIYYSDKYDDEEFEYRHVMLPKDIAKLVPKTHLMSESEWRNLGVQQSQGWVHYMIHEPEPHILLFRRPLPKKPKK
T1 sequence (P63208 2-163 partner): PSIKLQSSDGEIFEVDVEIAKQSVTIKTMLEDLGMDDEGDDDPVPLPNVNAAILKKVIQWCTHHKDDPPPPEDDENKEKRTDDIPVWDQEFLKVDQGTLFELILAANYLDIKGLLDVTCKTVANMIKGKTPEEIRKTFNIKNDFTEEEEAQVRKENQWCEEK

| SMILES | IC50 [1] | IC50 [2] |
| --- | --- | --- |
| COC(=O)c1ccc(CCc2cc(O)ccc2O)cc1 [Skp2-1, NSC681152] | 58.7 ± 1.62 µM |  |
| Cc1ccc(S(=O)(=O)Nc2cccc3cccnc23)cc1 [Skp2-2] |  | 27.8 ± 1.44 µM |
| C=CC(=O)Nc1cccc(-c2nnc(SCc3ccccc3)n2C)c1 [SYK-031] |  | 2.14 ± 0.76 µM |

Reference: article PMC8548536, “Establishment of high-throughput screening HTRF assay for identification small molecule inhibitors of Skp2-Cks1” (Scientific Reports, 2021)
